Experiments:
C57BL/6J lean mice = assay: CGRP-induced blood glucose excursions; type: in vivo, mouse; details: 80 mg/kg 30 min before CGRP
Experimental: Supraphysiological doses of CGRP induce blood glucose fluctuations via amylin receptors. […] Blood glucose was monitored at various points throughout the experiment, beginning at 45 minutes before and ending at 110 minutes after CGRP administration. The data was plotted (left panel) and the area under the curve for the 6bK-administered mice and the control mice was integrated.

[1] = biological target: T1, endogenous IDE in mouse plasma (Mus musculus, UniProt Q9JHR7, L174F/R633G/V509I/Y332H); assay: LC-MS assay for ex vivo degradation of CGRP in mouse plasma; type: biochemical; details: CGRP 10 μM
T1 construct: endogenous IDE in mouse plasma; from tissue; host or cells: mouse plasma
Experimental: (§1) All data points and error bars represent mean±SEM. Significance tests were performed using two-tail Student's t-test, and significance levels shown in the figures are p<0.05 (*) or p<0.01 (**) versus the vehicle-only control group. The in vitro selection of the DNA-templated macrocycle libraryl^16,17 used 20 μg His6-tagged mouse IDE immobilized on cobalt magnetic beads (Dynabeads, Invitrogen). IDE proteolytic activity was assayed with fluorogenic peptide Mca-[…](Dnp)-OH (R&D). IDE inhibition was confirmed using an anti-insulin antibody time-resolved FRET assay (Cysbio), and using an LCMS assay for CGRP cleavage fragments CGRP1-17 and CGRP18-37 in plasma^18. […] IDE degradation assays for insulin and calcitonin-gene related peptide (CGRP). […] Fluorescence was measured using a Tecan Safire 2 plate reader (excitation=320 nm, emission=665 and 620 nm, lag time=60 μs) according the assay manufacturer's recommendations. Degradation of CGRP by endogenous IDE in mouse plasma was analyzed by LC-MS for the formation of CGRP1-17 and CGRP18-37 as previously reported^6.

hIDE WT = biological target: T2, hIDE WT (Homo sapiens, UniProt P14735); assay: Small molecule-enzyme mutant complementation study, wild type; type: biochemical
T2 construct: The reported N-His6-tagged human IDE42-1019 construct; made in house; host or cells: E. coli Rosetta 2 (DE3) pLysS
Text: Protease assays with fluorogenic peptide substrates. […] All assay data points were obtained in duplicate.
Site-directed mutagenesis, expression, and purification of human IDE. The reported N-His6-tagged human IDE42-1019 construct was introduced in the expression plasmid pTrcHis-A (Invitrogen) using primers for uracil-specific excision reactions (USER) by Taq (NEB) and Pfu polymerases (PfuTurbo CX®, Agilent). The IDE gene was amplified with the primers 5′-[…]-dU-[…] and 5′-[…] G-dU-[…] (underlined sequences represent overhangs, and italics highlight the PCR priming sequence). Similarly, the pTrcHis-A vector was amplified for USER cloning with the primers 5′-[…] TGA-dU-[…] CCC and 5′-[…]-dU-[…]. Mutant IDE constructs were generated by amplifying the full vector construct with USER cloning primers introducing a mutant overhang (Table 5).
All PCR products were purified on microcentrifuge membrane columns (MinElute®, Qiagen) and quantified by UV absorbance (NanoDrop). Each fragment (0.2 pmol) was combined in a 10 μL reaction mixture containing 20 units DpnI (NEB), 0.75 units of USER mix (Endonuclease VIII and Uracil-DNA Glycosylase, NEB), 20 mM Tris-acetate, 50 mM potassium acetate, 10 mM magnesium acetate, 1 mM dithiothreitol at pH 7.9 (1× NEBuffer 4). The reactions were incubated at 37° C. for 45 min, followed by heating to 80° C. and slow cooling to 30° C. (0.2° C./s). The hybridized constructs were directly used for heat-shock transformation of chemically competent NEB turbo E. coli cells according to the manufacturer's instructions. Transformants were selected on carbenicillin LB agar, and isolated colonies were cultured overnight in 2 mL LB.
The plasmid was extracted using a microcentrifuge membrane column kit (Miniprep®, Qiagen), and the sequence of genes and vector junctions were confirmed by Sanger sequencing (Table 6). The plasmid constructs were transformed by heat-shock into chemically-competent expression strain Rosetta 2 (DE3) pLysS E. coli cells (EMD Millipore), and selected on carbenicillin/chloramphenicol LB agar. Cells transformed with IDE pTrcHis A constructs were cultured overnight at 37° C. in 2 XYT media (31 g in 1 L) containing 100 μg/mL ampicillin and 34 μg/mL chloramphenicol. Expression of His6-tagged IDE proteins was induced when the culture measured OD600 ˜0.6 by addition of isopropyl-β-D-1-thiogalactopyranoside (IPTG) to 1 mM final concentration, incubated overnight at 37° C., followed by centrifugation at 10,000 g for 30 min at 4° C.
Recombinant His6-tagged proteins were purified by Ni(II)-affinity chromatography (IMAC sepharose beads, GE Healthcare®) according to the manufacturer's instructions. The cell pellets were resuspended in pH 8.0 buffer containing 50 mM phosphate, 300 mM NaCl, 10 mM imidazole, 1% Triton X-100 and 1 mM tris(2-carboxyethyl)phosphine hydrochloride (TCEP), and were lysed by probe sonication for 4 min at 4° C., followed by clearing of cell debris by centrifugation at 10,000 g for 25 min at 4° C. The supernatant was incubated with Ni(II)-doped IMAC resin (2 mL) for 3 h at 4° C. The resin was washed twice with the cell resuspension/lysis buffer, and three times with pH 8.0 buffer containing 50 mM phosphate, 300 mM NaCl,50 mM imidazole and 1 mM TCEP. Elution was performed in 2 mL aliquots by raising the imidazole concentration to 250 mM and subsequently to 500 mM in the previous buffer. The fractions were combined and the buffer was exchanged to the recommended IDE buffer (R&D) using spin columns with 100 KDa molecular weight cut off membranes (Millipore). Protein yields were typically ˜10 μg/L, and >90% purity based on gel electrophoresis analysis (Coomassie stained).

IDE (R&D) = IDE (R&D) (Homo sapiens, UniProt P14735); assay: Homogeneous time-resolved fluorescence (HTRF) insulin degradation assay; type: biochemical; design: recombinant human IDE42-1019 (R&D Systems); purchased R&D
Experimental: as §1

T2 sequence (P14735 42-1019): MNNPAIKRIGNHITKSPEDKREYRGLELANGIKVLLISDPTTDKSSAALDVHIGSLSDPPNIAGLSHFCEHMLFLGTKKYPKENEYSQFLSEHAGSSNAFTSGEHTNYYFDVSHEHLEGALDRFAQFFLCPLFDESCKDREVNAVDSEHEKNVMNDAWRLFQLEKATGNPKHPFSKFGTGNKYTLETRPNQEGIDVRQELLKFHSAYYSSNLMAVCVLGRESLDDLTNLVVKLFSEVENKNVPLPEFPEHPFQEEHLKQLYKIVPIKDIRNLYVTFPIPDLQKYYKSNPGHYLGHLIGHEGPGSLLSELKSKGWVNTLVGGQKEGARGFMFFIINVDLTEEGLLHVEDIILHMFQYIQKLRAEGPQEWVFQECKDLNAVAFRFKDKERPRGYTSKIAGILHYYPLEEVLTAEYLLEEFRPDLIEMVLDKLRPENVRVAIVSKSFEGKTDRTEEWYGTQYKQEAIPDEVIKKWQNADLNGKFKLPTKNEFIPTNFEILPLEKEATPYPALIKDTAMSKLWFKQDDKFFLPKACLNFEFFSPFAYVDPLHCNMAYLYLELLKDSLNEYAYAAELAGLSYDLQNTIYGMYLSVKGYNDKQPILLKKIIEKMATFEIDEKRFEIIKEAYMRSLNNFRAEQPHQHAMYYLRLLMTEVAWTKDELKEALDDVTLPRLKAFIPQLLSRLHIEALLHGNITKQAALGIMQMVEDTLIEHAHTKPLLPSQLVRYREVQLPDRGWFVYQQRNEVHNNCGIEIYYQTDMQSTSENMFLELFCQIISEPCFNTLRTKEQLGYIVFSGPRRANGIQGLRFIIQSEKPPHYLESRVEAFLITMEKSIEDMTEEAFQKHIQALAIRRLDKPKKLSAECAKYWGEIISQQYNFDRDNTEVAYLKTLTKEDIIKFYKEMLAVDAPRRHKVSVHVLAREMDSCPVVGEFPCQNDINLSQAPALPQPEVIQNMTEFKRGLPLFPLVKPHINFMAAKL
T1 sequence (Q9JHR7 whole entry L174F/Y332H/V509I/R633G): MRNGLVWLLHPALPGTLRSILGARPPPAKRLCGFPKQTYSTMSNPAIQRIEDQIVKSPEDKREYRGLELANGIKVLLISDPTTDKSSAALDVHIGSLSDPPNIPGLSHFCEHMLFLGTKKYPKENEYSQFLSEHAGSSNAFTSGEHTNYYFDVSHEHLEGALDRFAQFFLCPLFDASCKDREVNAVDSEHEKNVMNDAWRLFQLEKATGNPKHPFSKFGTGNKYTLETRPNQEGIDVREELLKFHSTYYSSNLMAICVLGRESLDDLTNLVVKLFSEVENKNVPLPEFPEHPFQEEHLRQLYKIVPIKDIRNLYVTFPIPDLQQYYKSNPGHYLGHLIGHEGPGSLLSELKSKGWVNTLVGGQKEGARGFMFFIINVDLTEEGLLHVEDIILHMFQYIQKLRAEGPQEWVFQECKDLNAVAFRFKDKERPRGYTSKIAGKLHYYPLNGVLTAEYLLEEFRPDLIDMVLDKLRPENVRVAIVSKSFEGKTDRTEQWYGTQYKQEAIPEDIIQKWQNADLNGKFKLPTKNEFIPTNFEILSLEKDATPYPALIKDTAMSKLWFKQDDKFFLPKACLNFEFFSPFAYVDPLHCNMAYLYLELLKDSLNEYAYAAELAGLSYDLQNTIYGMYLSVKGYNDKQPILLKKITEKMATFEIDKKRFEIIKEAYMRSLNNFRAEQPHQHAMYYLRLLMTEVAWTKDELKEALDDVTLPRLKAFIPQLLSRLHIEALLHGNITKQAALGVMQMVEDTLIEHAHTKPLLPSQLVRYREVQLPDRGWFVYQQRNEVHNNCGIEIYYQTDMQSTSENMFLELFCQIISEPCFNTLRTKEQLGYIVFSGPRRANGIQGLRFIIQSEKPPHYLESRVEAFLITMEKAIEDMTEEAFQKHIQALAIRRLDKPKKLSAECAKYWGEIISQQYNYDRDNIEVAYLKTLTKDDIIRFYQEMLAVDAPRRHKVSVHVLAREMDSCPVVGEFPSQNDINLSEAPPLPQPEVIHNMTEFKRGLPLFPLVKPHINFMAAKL
Chain of IDE (R&D) (P14735 42-1019): as the sequence (P14735 42-1019) above

inhibition of IDE proteolytic activity, calcitonin-gene related peptide LC-MS assay [1]	IC50 shift (hIDE WT; batch 1 (reference)) [fold]	IC50 shift (hIDE WT; batch 2 (reference)) [fold]	IC50 shift (hIDE WT; batch 3 (reference)) [fold]	inhibition of IDE proteolytic activity, insulin immunoassay (IDE (R&D))	SMILES	CGRP-induced blood glucose excursions (C57BL/6J lean mice)
					NCCCC[C@@H]1NC(=O)/C=C/C(=O)N[C@H](C(N)=O)CCCCNC(=O)[C@@H](Cc2ccc(C(=O)c3ccccc3)cc2)NC(=O)[C@H](CC2CCCCC2)NC1=O [Compound 6bK]	augments
confirmed	1.0	1.0	1.0	confirmed	NC(=O)CCC1NC(=O)C=CC(=O)NC(C(N)=O)CCCCNC(=O)C(Cc2ccc(C(=O)c3ccccc3)cc2)NC(=O)C(CC2CCCCC2)NC1=O (stereo not drawn) [Compound 6b]	

Reference: patent publication US20160282364A1, “ASSAY FOR INSULIN-DEGRADING ENZYME (IDE) INHIBITORS” (PRESIDENT AND FELLOWS OF HARVARD COLLEGE, priority 2013, published 2016)
